Results as given in patent US20260265700A1, “NEURAL BIOHYBRID MANUFACTURED USING REDUCED GRAPHENE OXIDE NANOPARTICLES, NEUROMUSCULAR JUNCTION MODEL USING SAME, AND DRUG SCREENING METHOD USING SAME” (Sogang University Research & Business Development Foundation, priority 2023, published 2026).

Test system: NMJs manufactured using ALS neural biohybrids
Experiment: Muscle bundle contraction in 3D ALS-neuromuscular junction model
Assay type: cell-based, human
Settings: ALS-NMJ
Procedure: First, a hydrogel used for the 3D muscle bundles was prepared using a mixture of 340 μl of C2C12, 30% Matrigel, 250 μl of 16 mg/ml […], 10 μl of thrombin (0.5 U/1 mg fibrinogen) and 100 μl of DMEM.
After culturing for 4 days, the medium was replaced with DMEM supplemented with 2% horse serum, 100 U/mL penicillin-G, 100 μg/mL streptomycin, 1 mg/mL aminocaproic acid, and 1 ng/mL insulin growth factor-1 (IGF-1) as a muscle cell differentiation medium. The medium was changed every 2 days, and differentiation was carried out for 14 days or more.
The co-culture differentiation medium, along with muscle differentiation medium, was supplemented with brain-derived and glial cell line-derived neurotrophic factors (10 ng/ml BDNF and 10 ng/ml GDNF) to support viability of multiple neural biohybrids. The differentiation medium was replaced every two days for two weeks.

COc1cc(Nc2c(C#N)cnc3cc(OCCCN4CCN(C)CC4)c(OC)cc23)c(Cl)cc1Cl [bosutinib]
contraction of the muscle bundle relative to muscle movement of normal NMJs (after 5 days of treatment, FIG. 3C): approximately 85%
concentration giving the greatest recovery of muscle movement (various concentrations tested, FIGS. 3D and 3E): 100 µM
